Reference: patent publication US6436977B1, “Dosing regimens for lasofoxifene” (Pfizer Inc., priority 1999, dated 2002)
Where two headings read alike, the source gives them in different places.

Test: Plasma levels of lasofoxifene after a single oral dose in healthy postmenopausal women (LC-MS-MS)
Format: in vivo, human
Conditions: for concentration at 1 h: 1 hour after dosing; for concentration at 2 h: 2 hours after dosing; for concentration at 4 h: 4 hours after dosing; for concentration at 8 h: 8 hours after dosing; for concentration at 12 h: 12 hours after dosing; for concentration at 24 h: 24 hours after dosing; for concentration at 48 h: 48 hours after dosing; for concentration at 72 h: 72 hours after dosing; for concentration at 120 h: 120 hours after dosing; for concentration at 0.5 h: .5 hours after dosing
Description: A dose of 0.8 mg of lasofoxifene was administered to 12 healthy, postmenopausal women and blood samples were analyzed periodically as shown in Table 1.
A 1.0 ml sample of human plasma was analyzed for lasofoxifene according to CEDRA's Procedure TM-234 (CEDRA's address). Internal standard used for this procedure was a pentadeuterated lasofoxifene. The plasma sample containing lasofoxifene and the internal standard was extracted with MTBE. Following centrifugation, the organic layer was transferred to another tube and evaporated. An aliquot of the reconstituted sample extract was then injected onto a SCIEX API^III-PLUS LC-MS-MS instrument equipped with a short ion exchange HPLC column. Peak areas of the m/z 414→97.9 daughter ion of lasofoxifene were measured against the peak areas of the mlz 419→97.9 daughter of the internal standard. Quantitation was performed using a 1/x weighted least squares regression line generated from spiked plasma calibration samples.
The procedure of Example 1 was repeated with a dose of 10-mg lasofoxifene administered to 8 healthy postmenopausal women. Plasma levels for lasofoxifene are shown for 672 hours in Table 2.

[1] = female, human, plasma, single oral 10 mg dose, healthy post menopausal women, read-out: Mean plasma concentration, na Lasofoxifene per ml plasma
[2] = female, human, plasma, single oral dose 0.8 mg, healthy post menopausal women, read-out: Mean plasma concentration, ng Lasofoxifene per ml plasma

Oc1ccc2c(c1)CC[C@H](c1ccccc1)[C@@H]2c1ccc(OCCN2CCCC2)cc1 [lasofoxifene, (−)-cis-6-phenyl-5-[4-(2-pyrrolidin-1-yl-ethoxy)-phenyl]-5,6,7,8-tetrahydronaphthalen-2-ol, D-tartrate]
duration of therapeutically effective dose (level) (doses from 10 to 20 mg, see Table 2): up to 30 days
concentration at 168 h (female, human, plasma, oral, single dose of 0.8 mg, healthy women, after 168 hours (1 week), read-out: blood level (concentration)): ~0.3 ng/mL
concentration at 0 h (female, human, plasma, single oral 10 mg dose, healthy post menopausal women, 0 hours after dosing, read-out: Mean plasma concentration, na Lasofoxifene per ml plasma): 0 ng/mL
concentration at 1 h [1]: 4.42 ng/mL
concentration at 2 h [1]: 5.64 ng/mL
concentration at 4 h [1]: 8.46 ng/mL
concentration at 8 h [1]: 10.4 ng/mL
concentration at 12 h [1]: 10.2 ng/mL
concentration at 24 h [1]: 8.35 ng/mL
concentration at 48 h [1]: 7.16 ng/mL
concentration at 72 h [1]: 5.97 ng/mL
concentration at 120 h [1]: 4.56 ng/mL
concentration at 168 h (female, human, plasma, single oral 10 mg dose, healthy post menopausal women, 168 hours after dosing, read-out: Mean plasma concentration, na Lasofoxifene per ml plasma): 3.74 ng/mL
concentration at 216 h (female, human, plasma, single oral 10 mg dose, healthy post menopausal women, 216 hours after dosing, read-out: Mean plasma concentration, na Lasofoxifene per ml plasma): 2.88 ng/mL
concentration at 264 h (female, human, plasma, single oral 10 mg dose, healthy post menopausal women, 264 hours after dosing, read-out: Mean plasma concentration, na Lasofoxifene per ml plasma): 2.27 ng/mL
concentration at 336 h (female, human, plasma, single oral 10 mg dose, healthy post menopausal women, 336 hours after dosing, read-out: Mean plasma concentration, na Lasofoxifene per ml plasma): 1.6 ng/mL
concentration at 408 h (female, human, plasma, single oral 10 mg dose, healthy post menopausal women, 408 hours after dosing, read-out: Mean plasma concentration, na Lasofoxifene per ml plasma): 1.05 ng/mL
concentration at 480 h (female, human, plasma, single oral 10 mg dose, healthy post menopausal women, 480 hours after dosing, read-out: Mean plasma concentration, na Lasofoxifene per ml plasma): 0.75 ng/mL
concentration at 576 h (female, human, plasma, single oral 10 mg dose, healthy post menopausal women, 576 hours after dosing, read-out: Mean plasma concentration, na Lasofoxifene per ml plasma): 0.5 ng/mL
concentration at 672 h (female, human, plasma, single oral 10 mg dose, healthy post menopausal women, 672 hours after dosing, read-out: Mean plasma concentration, na Lasofoxifene per ml plasma): 0.31 ng/mL
concentration at 0.5 h [1]: 2.33 ng/mL
concentration at 1 h [2]: 0.32 ng/mL
concentration at 2 h [2]: 0.37 ng/mL
concentration at 4 h [2]: 0.46 ng/mL
concentration at 8 h [2]: 0.72 ng/mL
concentration at 12 h [2]: 0.73 ng/mL
concentration at 24 h [2]: 0.64 ng/mL
concentration at 48 h [2]: 0.56 ng/mL
concentration at 72 h [2]: 0.49 ng/mL
concentration at 120 h [2]: 0.4 ng/mL
concentration at 168 h (female, human, plasma, single oral dose 0.8 mg, healthy post menopausal women, 168 hours after dosing, read-out: Mean plasma concentration, ng Lasofoxifene per ml plasma): 0.34 ng/mL
concentration at 0.5 h [2]: 0.13 ng/mL
initial blood level (single dose of 0.8 mg, healthy women, within a few hours): 0.7 ng/mL
